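Method: 48-hour compound exposure of cells in 96-well plates, five concentrations, linear interpolation of endpoints. The concentration for 50% growth inhibition is given as GI50.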 Activity calls are given as the source filed them. Cut-off read from the data, not from the text of the source: active = GI50 up to about 1.1 µM and inactive = higher.
What was measured:
Test in all cases: DTP human tumour cell line panel, 48 h
[1] = tested on: HCT-116
[2] = tested on: TK-10
[3] = tested on: UACC-62
[4] = tested on: A549
[5] = tested on: SK-MEL-5
[6] = tested on: A498
[7] = tested on: NCI-H23
[8] = tested on: 786-0
[9] = tested on: MOLT-4
[10] = tested on: SNB-75
[11] = tested on: PC-3
[12] = tested on: SR
[13] = tested on: LOX IMVI
[14] = tested on: SF-295
[15] = tested on: OVCAR-5
[16] = tested on: SF-539
[17] = tested on: SK-MEL-28
[18] = tested on: M14
[19] = tested on: NCI-H460

SMILES	GI50 [1]	GI50 [2]	GI50 [3]	GI50 [4]	GI50 [5]	GI50 [6]	GI50 [7]	GI50 [8]	GI50 [9]	GI50 [10]	GI50 [11]	GI50 [12]	GI50 [13]	GI50 [14]	GI50 [15]	GI50 [16]	GI50 [17]	GI50 [18]	GI50 [19]
CC1OC(Oc2c(-c3cc(O)c(O)c(O)c3)oc3cc(O)cc(O)c3c2=O)C(O)C(O)C1O (stereo not given)	> 100 µM (inactive)	> 100 µM (inactive)	> 100 µM (inactive)	> 100 µM (inactive)	> 100 µM (inactive)	> 100 µM (inactive)	> 100 µM (inactive)	> 100 µM (inactive)	> 100 µM (inactive)	> 100 µM (inactive)	> 100 µM (inactive)	96.8 µM (inactive)	> 100 µM (inactive)	> 100 µM (inactive)	> 100 µM (inactive)	> 100 µM (inactive)	> 100 µM (inactive)	> 100 µM (inactive)	
CSc1c(C(=O)Nc2ccc(C)cc2)c(N)nn1-c1ccccc1	49.4 µM (inactive)	33.3 µM (inactive)	95.9 µM (inactive)	27.3 µM (inactive)	> 100 µM (inactive)	23.1 µM (inactive)	> 100 µM (inactive)	19.9 µM (inactive)	> 100 µM (inactive)		39.5 µM (inactive)	9.89 µM (inactive)	> 100 µM (inactive)	48.8 µM (inactive)	> 100 µM (inactive)	35.8 µM (inactive)	55.1 µM (inactive)	36.7 µM (inactive)	3.55 µM (inactive)
O=C1c2ccc3cc(CCl)cc(O)c3c2C(=O)c2cccc(O)c21	1.1 µM (active)	> 10 µM (inactive)	1.22 µM (inactive)	4.61 µM (inactive)	0.604 µM (active)	> 10 µM (inactive)	3.12 µM (inactive)	2.07 µM (inactive)	1.37 µM (inactive)		1.81 µM (inactive)	0.447 µM (active)	2.96 µM (inactive)	> 10 µM (inactive)	> 10 µM (inactive)	2.39 µM (inactive)	1.77 µM (inactive)	0.239 µM (active)	3.3 µM (inactive)
CC(C)(C)c1ccc2c(c1)OCc1n[nH]c(n1)COc1cc(C(C)(C)C)ccc1OCCOCCO2	4.31 µM (inactive)	2.58 µM (inactive)	2.88 µM (inactive)	3.01 µM (inactive)	2.38 µM (inactive)	5.64 µM (inactive)	3.09 µM (inactive)	4.45 µM (inactive)	3.67 µM (inactive)	5.27 µM (inactive)	2.41 µM (inactive)	3.09 µM (inactive)		3.55 µM (inactive)	5.96 µM (inactive)	7.29 µM (inactive)	2.7 µM (inactive)	2.86 µM (inactive)	3.13 µM (inactive)
O=S(=O)(SC1=NCCN1)c1cccc2ccccc12	30.3 µM (inactive)		34.4 µM (inactive)	22.8 µM (inactive)	19.1 µM (inactive)	26.1 µM (inactive)	28.4 µM (inactive)	25.4 µM (inactive)	27.7 µM (inactive)	13.8 µM (inactive)	29.8 µM (inactive)	> 10 µM (inactive)	43.8 µM (inactive)	24.1 µM (inactive)	22.1 µM (inactive)	20.3 µM (inactive)	47 µM (inactive)	27.6 µM (inactive)	22.7 µM (inactive)

From ChEMBL document CHEMBL1201862, “PubChem BioAssay data set” (2004)
